Experimental data: ChEMBL document CHEMBL5390253, “Discovery of Selective and Potent Macrocyclic CDK9 Inhibitors for the Treatment of Osimertinib-Resistant Non-Small-Cell Lung Cancer” (J Med Chem, 2023)

system: HCC827; assay: Antiproliferative activity against human HCC827 cells incubated for 72 hrs by MTT assay; type: functional, cell-based; conditions: HCC827, 72 h

`O=C(c1ccc2cc1OCCCCOc1cc(ccc1F)-c1nc(ncc1F)N2)N1CCC(N2CCOCC2)CC1` and `O=C(c1ccc2cc1OCCCCOc1cc(ccc1F)-c1nc(ncc1F)N2)N1CCC(N2CCOCC2)C1` (stereo unspecified) are within 1.5-fold of each other in IC50: 4780 nM for the first, 5170 nM for the second.

Compared with `O=C(c1ccc2cc1OCCCCOc1cc(ccc1F)-c1nc(ncc1F)N2)N1CCNCC1`, `CN(C)CCNC(=O)c1ccc2cc1OCCCCOc1cc(ccc1F)-c1nc(ncc1F)N2` is 80-fold lower in IC50: 2470 nM for the first, 31 nM for the second. The second is the more potent here.

Compared with `O=C(NC1CCN(C2CCOCC2)CC1)c1ccc2cc1OCCCCCCOc1cc(ccc1F)-c1nc(ncc1F)N2`, `O=C(NC1CCC(N2CCOCC2)CC1)c1ccc2cc1OCCCCCCOc1cc(ccc1F)-c1nc(ncc1F)N2` (stereo unspecified) is 1.7-fold higher in IC50: 255 nM for the first, 421 nM for the second.

For `COc1cc(F)ccc1-c1ncnc(Nc2ccc(C(=O)NCCN(C)C)cc2)n1`, the IC50 was 340000 nM.

target: CDK9/cyclin T1 (Homo sapiens) (UniProt O60563+P50750); assay: Inhibition of CDK9/Cyclin-T1 (unknown origin) at 20 nM preincubated for 10 mins followed by substrate addition and measured after 60 mins in presence of ATP by ADP-Glo reagent based assay relative to control; type: protein-complex assay; conditions: time 70.0 min

First: O=C(c1ccc2cc1OCCCCOc1cc(ccc1F)-c1nc(ncc1F)N2)N1CCC(N2CCOCC2)CC1
Second: O=C(c1ccc2cc1OCCCCOc1cc(ccc1F)-c1nc(ncc1F)N2)N1CCC(N2CCOCC2)C1 (stereo unspecified)
The inhibition of the first is lower: 20.9% for the first, 27.6% for the second.

`O=C(c1ccc2cc1OCCCCOc1cc(ccc1F)-c1nc(ncc1F)N2)N1CCNCC1` showed an inhibition of 45.7%.

target: CDK2/Cyclin A2 (Homo sapiens, UniProt P24941); assay: Inhibition of CDK2/Cyclin A2 (unknown origin) preincubated for 10 mins followed by substrate addition and measured after 60 mins in presence of ATP by ADP-Glo reagent based assay; type: protein-complex assay; conditions: not given

`CN1CCN(CCNC(=O)c2ccc3cc2OCCCCCCOc2cc(ccc2F)-c2nc(ncc2F)N3)CC1` and `CN1CCC(NC(=O)c2ccc3cc2OCCCCCCOc2cc(ccc2F)-c2nc(ncc2F)N3)CC1` are within 1.5-fold of each other in IC50: 25.4 nM for the first, 30.7 nM for the second.

First: CN(C)CCNC(=O)c1ccc2cc1OCCCCOc1cc(ccc1F)-c1nc(ncc1F)N2
Second: O=C(NC1CCN(C2CCOCC2)CC1)c1ccc2cc1OCCCCCCOc1cc(ccc1F)-c1nc(ncc1F)N2
The IC50 of the first is 37-fold lower: 3.2 nM for the first, 117 nM for the second. The first is the more potent here.

Compared with `O=C(NCCN1CCOCC1)c1ccc2cc1COCCCCOCc1cc(ccc1F)-c1nc(ncc1F)N2`, `O=C(NC1CCC(N2CCOCC2)CC1)c1ccc2cc1OCCCCCCOc1cc(ccc1F)-c1nc(ncc1F)N2` (stereo unspecified) is 5.1-fold higher in IC50: 140 nM for the first, 715 nM for the second. The first is the more potent here.

With `COc1cc(F)ccc1-c1ncnc(Nc2ccc(C(=O)NCCN(C)C)cc2)n1` the IC50 was 24 nM.

target: CDK9/cyclin T1 (Homo sapiens, UniProt P50750); assay: Inhibition of CDK9/Cyclin-T1 (unknown origin) preincubated for 10 mins followed by substrate addition and measured after 60 mins in presence of ATP by ADP-Glo reagent based assay; type: protein-complex assay; conditions: not given
Sequence (O60563 whole entry): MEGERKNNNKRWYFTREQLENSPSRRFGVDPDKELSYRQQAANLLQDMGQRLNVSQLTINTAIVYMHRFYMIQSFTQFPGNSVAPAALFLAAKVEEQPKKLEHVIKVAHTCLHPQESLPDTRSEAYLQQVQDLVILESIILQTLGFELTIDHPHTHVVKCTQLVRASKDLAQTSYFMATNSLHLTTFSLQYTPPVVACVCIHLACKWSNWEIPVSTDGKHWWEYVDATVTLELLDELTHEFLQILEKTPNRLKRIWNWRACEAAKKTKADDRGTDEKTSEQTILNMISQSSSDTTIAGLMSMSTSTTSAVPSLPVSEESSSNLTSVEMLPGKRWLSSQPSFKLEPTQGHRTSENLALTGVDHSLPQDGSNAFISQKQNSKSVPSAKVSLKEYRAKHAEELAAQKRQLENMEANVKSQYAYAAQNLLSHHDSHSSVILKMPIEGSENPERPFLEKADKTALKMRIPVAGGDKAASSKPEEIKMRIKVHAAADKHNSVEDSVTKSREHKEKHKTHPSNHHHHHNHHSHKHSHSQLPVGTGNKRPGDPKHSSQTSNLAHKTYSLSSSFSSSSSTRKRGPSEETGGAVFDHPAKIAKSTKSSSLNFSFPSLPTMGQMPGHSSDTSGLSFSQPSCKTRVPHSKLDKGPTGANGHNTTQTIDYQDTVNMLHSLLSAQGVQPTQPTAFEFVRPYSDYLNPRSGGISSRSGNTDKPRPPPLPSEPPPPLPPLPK
Sequence (P50750 whole entry): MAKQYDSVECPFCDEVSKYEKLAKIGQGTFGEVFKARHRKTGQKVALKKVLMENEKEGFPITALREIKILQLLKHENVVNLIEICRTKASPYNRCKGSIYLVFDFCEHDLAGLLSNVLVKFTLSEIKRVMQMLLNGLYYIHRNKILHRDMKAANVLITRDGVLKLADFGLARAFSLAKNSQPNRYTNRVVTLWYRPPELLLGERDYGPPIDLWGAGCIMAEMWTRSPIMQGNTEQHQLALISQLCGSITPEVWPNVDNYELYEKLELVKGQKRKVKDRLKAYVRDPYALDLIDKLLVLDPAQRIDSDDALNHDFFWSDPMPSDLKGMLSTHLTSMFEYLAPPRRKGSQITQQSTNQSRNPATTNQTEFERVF

`CN1CCN(CCNC(=O)c2ccc3cc2OCCCCCCOc2cc(ccc2F)-c2nc(ncc2F)N3)CC1` and `CN1CCC(NC(=O)c2ccc3cc2OCCCCCCOc2cc(ccc2F)-c2nc(ncc2F)N3)CC1` are within 1.5-fold of each other in IC50: 2.3 nM for the first, 3.2 nM for the second.

Compared with `CN(C)CCNC(=O)c1ccc2cc1OCCCCOc1cc(ccc1F)-c1nc(ncc1F)N2`, `O=C(NC1CCN(C2CCOCC2)CC1)c1ccc2cc1OCCCCCCOc1cc(ccc1F)-c1nc(ncc1F)N2` is 2.4-fold higher in IC50: 1.1 nM for the first, 2.6 nM for the second. The first is the more potent here.

Compared with `O=C(NCCN1CCOCC1)c1ccc2cc1COCCCCOCc1cc(ccc1F)-c1nc(ncc1F)N2`, `O=C(NC1CCC(N2CCOCC2)CC1)c1ccc2cc1OCCCCCCOc1cc(ccc1F)-c1nc(ncc1F)N2` (stereo unspecified) is 3.9-fold lower in IC50: 7.7 nM for the first, 2 nM for the second. The second is the more potent here.

`COc1cc(F)ccc1-c1ncnc(Nc2ccc(C(=O)NCCN(C)C)cc2)n1` gave an IC50 of 3.1 nM.

system: not listed separately; assay: Downregulation of Mcl-1 in human NCI-H1975 cells at 500 nM relative to control; type: functional; conditions: not given

Compared with `O=C(c1ccc2cc1OCCCCOc1cc(ccc1F)-c1nc(ncc1F)N2)N1CCC(N2CCOCC2)CC1`, `O=C(NC1CCC(N2CCOCC2)CC1)c1ccc2cc1OCCCCCCOc1cc(ccc1F)-c1nc(ncc1F)N2` (stereo unspecified) is higher in Activity: -34% for the first, 64.6% for the second.

Going from `CN(C)CCNC(=O)c1ccc2cc1OCCCCOc1cc(ccc1F)-c1nc(ncc1F)N2` to `O=C(NC1CCN(C2CCOCC2)CC1)c1ccc2cc1OCCCCCCOc1cc(ccc1F)-c1nc(ncc1F)N2`, the Activity falls from 82.6% to 54.4%.

target: CDK2/Cyclin A2 (Homo sapiens) (UniProt P24941+P20248); assay: Inhibition of CDK2/Cyclin A2 (unknown origin) at 100 nM preincubated for 10 mins followed by substrate addition and measured after 60 mins in presence of ATP by ADP-Glo reagent based assay relative to control; type: protein-complex assay; conditions: time 70.0 min

First: O=C(c1ccc2cc1OCCCCOc1cc(ccc1F)-c1nc(ncc1F)N2)N1CCC(N2CCOCC2)CC1
Second: O=C(c1ccc2cc1OCCCCOc1cc(ccc1F)-c1nc(ncc1F)N2)N1CCC(N2CCOCC2)C1 (stereo unspecified)
The inhibition of the first is lower: 9.1% for the first, 11.7% for the second.

`O=C(c1ccc2cc1OCCCCOc1cc(ccc1F)-c1nc(ncc1F)N2)N1CCNCC1` gave an inhibition of 32.9%.

system: NCI-H1975; assay: Antiproliferative activity against human NCI-H1975 cells incubated for 72 hrs by MTT assay; type: functional, cell-based; conditions: NCI-H1975, 72 h

`O=C(c1ccc2cc1OCCCCOc1cc(ccc1F)-c1nc(ncc1F)N2)N1CCC(N2CCOCC2)CC1` and `O=C(c1ccc2cc1OCCCCOc1cc(ccc1F)-c1nc(ncc1F)N2)N1CCC(N2CCOCC2)C1` (stereo unspecified) are within 1.5-fold of each other in IC50: 2680 nM for the first, 1870 nM for the second.

`CN1CCN(CCNC(=O)c2ccc3cc2OCCCCCCOc2cc(ccc2F)-c2nc(ncc2F)N3)CC1` and `CN1CCC(NC(=O)c2ccc3cc2OCCCCCCOc2cc(ccc2F)-c2nc(ncc2F)N3)CC1` are within 1.5-fold of each other in IC50: 143 nM for the first, 135 nM for the second.

First: O=C(c1ccc2cc1OCCCCOc1cc(ccc1F)-c1nc(ncc1F)N2)N1CCNCC1
Second: CN(C)CCNC(=O)c1ccc2cc1OCCCCOc1cc(ccc1F)-c1nc(ncc1F)N2
The IC50 of the first is 41-fold higher: 1060 nM for the first, 26 nM for the second.

Going from `O=C(NC1CCN(C2CCOCC2)CC1)c1ccc2cc1OCCCCCCOc1cc(ccc1F)-c1nc(ncc1F)N2` to `O=C(NC1CCC(N2CCOCC2)CC1)c1ccc2cc1OCCCCCCOc1cc(ccc1F)-c1nc(ncc1F)N2` (stereo unspecified), the IC50 rises from 373 nM to 814 nM (2.2-fold).

Compared with `O=C(NCCN1CCOCC1)c1ccc2cc1COCCCCOCc1cc(ccc1F)-c1nc(ncc1F)N2`, `COc1cc(F)ccc1-c1ncnc(Nc2ccc(C(=O)NCCN(C)C)cc2)n1` is 410-fold higher in IC50: 613 nM for the first, 254000 nM for the second.
